Laboratory results from patent publication US8236523B2, “Camp reporters and high throughput assays” (The Johns Hopkins University, priority 2004, dated 2012).

Tests used:
Format in all cases: cell-based
cAMP [1] = test: High throughput 96-well plate assay using ICUE2 stable HEK293 cells
Experimental: HEK293 cells which stably express ICUE2 (“ICUE2 stable HEK293 cells”) were grown to confluency in 10 cm dishes in DMEM, 10% FBS, 1% penicillin/streptomycin, and 250 μg/ml G418. HEK-293 cells were transfected with cDNA encoding ICUE2 using calcium phosphate at 40% confluency and allowed to grow for 40 hours. Cells were removed from the dish using 0.05% trypsin, spun down, and replaced with fresh media. ICUE2 stable HEK293 cells were counted on a hemocytometer using trypan blue stain. One hundred fifty thousand (150,000) cells were plated per well on a 96-well clear bottom assay plate in a total of 0.2 ml of media per […] and allowed to double once. Media was removed, cells were washed with Hanks buffered salt solution (HBSS) and then covered with 0.05 ml of HBSS per well. In a separate sterile plate, appropriate drugs were added to each well containing HBSS for a total volume of 0.05 ml. […] A baseline was established in three cycles, each consisting of a full plate reading of yellow intensity, followed by a reading of cyan intensity. Cells were then treated with isoproterenol (ISO; […] Readings were taken in six or twenty additional cycles. […] Baseline FRET ratios were calculated as the average ratio of yellow/cyan for each well before the addition of drug. FRET change was calculated as the percent increase of FRET ratio over baseline for each well during a given cycle. The FRET changes of all wells having undergone the same drug treatment were then averaged within each cycle, and that cycle was correlated with time.

cAMP [2] = test: 96-well live cell plate reading of HEK293 cells expressing ICUE3; details: 1 μM ISO, 50 μM FSK
Experimental: Plate reading used a 420DF20 excitation filter and two emission filters (470DF40 for cyan and 535DF25 for yellow). A baseline was established in three cycles, each consisting of a full plate reading of yellow intensity, followed by a reading of cyan intensity. Cells were then treated with isoproterenol (ISO; Aldrich), forskolin (Calbiochem), H89, propranolol, and 3-isobutyl-1-methylxanthine (IBMX) as indicated. Readings were taken in six or twenty additional cycles. Each cycle lasted 60 to 145 sec. Baseline FRET ratios were calculated as the average ratio of yellow/cyan for each well before the addition of drug. FRET change was calculated as the percent increase of FRET ratio over baseline for each well during a given cycle. The FRET changes of all wells having undergone the same drug treatment were then averaged within each cycle, and that cycle was correlated with time.
Live cell plate reading. HEK293 cells were transfected with cDNA encoding ICUE reporters using calcium phosphate at 40% confluency and allowed to grow for 40 hours. Cells were then trypsinized and plated in a Costar 3603 96-well assay plate (Coming) at a density of 150,000 cells per well. After incubation for another 24 hours, cells were washed once with HBSS and left in 150 μl HBSS at 20-25° C. Fluorescence reading was taken on a FLUOstar OPTIMA fluorescence microplate reader (BMG Labtechnologies Inc.) using a 420DF20 excitation filter and two emission filters (470DF40 for cyan and […] for yellow). A baseline was established in three cycles, each consisting of a full plate reading of yellow intensity, followed by a reading of cyan intensity. Each cycle lasted between 64 and 145 seconds. Readings were taken in additional cycles. FRET change was calculated as the percent increase of emission ratios (cyan-to-yellow) over baseline for each well during a given cycle. To assess the efficacy of the assay, several statistical parameters were calculated, including Z factor, coefficient of variation, and signal-to-noise ratio (Zhang et al., J. Biomol. Screen. 4, 67-73, 1999).

cAMP [3] = test: Dual-emission ratio (FRET) imaging of Epac-based cAMP reporters (ICUE1 and targeted fusions) in HEK-293 cells; details: HEK293 cells expressing ICUE1, 10 μM ISO, 50 μM FSK
Experimental: Cell Culture. […] Cells were then transfected with FuGENE-6 transfection reagent (Roche) or calcium phosphate and allowed to grow for 12-24 hours before imaging.
Imaging. Cells were washed twice with Hanks' balanced salt solution buffer after 12- to 24-h incubation at 37° C. culture medium. Cells were maintained in buffer in the dark at room temperature with addition of isoproterenol (Aldrich), forskolin (Calbiochem), Prostaglandin E1 (PGE1) (Sigma), and 8-(4-chloro-phenylthio)-2′-O-methyl adenosine 3′,5′-monophosphate (8-pCPT-2′-O-Me-cAMP) (Axxora Biolog) as indicated. Cells were also treated with P-(4,5-dimethoxy-2-nitrobenzyl) adenosine 3′,5′-monophosphate (DMNB-cAMP) (Molecular Probe).
Cells were imaged on a Zeiss Axiovert 200M microscope with a cooled charge-coupled device camera MicroMAX BFT512 (Roper Scientific) controlled by METAFLUOR 6.2 software (Universal Imaging). Dual-emission ratio imaging used a 420DF20 excitation filter, a 450DRLP dichroic mirror and two emission filters (475DF40 for ECFP, 535DF25 for citrine) alternated by a filter changer Lambda 10-2 (Sutter Instruments). Exposure time was 100-500 ms and images were taken every 8-30 s. Fluorescent images were background-corrected by subtracting autofluorescence intensities of untransfected cells (or background with no cells) from the emission intensities of fluorescent cells expressing reporters. The ratios of cyan to yellow emissions were then calculated at different time points and normalized by dividing all ratios by the emission ratio just prior to stimulation therefore setting the basal emission ratio to 1.

Structure (SMILES): CC(C)NCC(O)c1ccc(O)c(O)c1 (stereo not shown) [isoproterenol]
- character of ICUE2 response (in words) (cAMP [1]; 1 μM ISO, 100 μM IBMX, 50 μM FSK): transient responses
- Average percent FRET response ± standard deviation, cycle 1 (cAMP [1]; cycle 1 (1 cycle = 60 seconds), 1 μM Iso, 50 μM Fsk, 10 μM H89, 100 μM IBMX): 8.22% ± 5.97%
- Average percent FRET response ± standard deviation, cycle 2 (cAMP [1]; cycle 2 (1 cycle = 60 seconds), 1 μM Iso, 50 μM Fsk, 10 μM H89, 100 μM IBMX): 20.2% ± 1.69%
- Average percent FRET response ± standard deviation, cycle 3 (cAMP [1]; cycle 3 (1 cycle = 60 seconds), 1 μM Iso, 50 μM Fsk, 10 μM H89, 100 μM IBMX): 21.59% ± 2.65%
- Average percent FRET response ± standard deviation, cycle 4 (cAMP [1]; cycle 4 (1 cycle = 60 seconds), 1 μM Iso, 50 μM Fsk, 10 μM H89, 100 μM IBMX): 22.44% ± 2.42%
- Average percent FRET response ± standard deviation, cycle 5 (cAMP [1]; cycle 5 (1 cycle = 60 seconds), 1 μM Iso, 50 μM Fsk, 10 μM H89, 100 μM IBMX): 21.47% ± 2.92%
- Average percent FRET response ± standard deviation, cycle 6 (cAMP [1]; cycle 6 (1 cycle = 60 seconds), 1 μM Iso, 50 μM Fsk, 10 μM H89, 100 μM IBMX): 19.64% ± 1.73
- Average percent FRET response ± standard deviation, cycle 7 (cAMP [1]; cycle 7 (1 cycle = 60 seconds), 1 μM Iso, 50 μM Fsk, 10 μM H89, 100 μM IBMX): 17.36% ± 1.28%
- Average percent FRET response ± standard deviation, cycle 8 (cAMP [1]; cycle 8 (1 cycle = 60 seconds), 1 μM Iso, 50 μM Fsk, 10 μM H89, 100 μM IBMX): 15.93% ± 2.0%
- Average percent FRET response ± standard deviation, cycle 9 (cAMP [1]; cycle 9 (1 cycle = 60 seconds), 1 μM Iso, 50 μM Fsk, 10 μM H89, 100 μM IBMX): 14.45% ± 3.55%
- Average percent FRET response ± standard deviation, cycle 10 (cAMP [1]; cycle 10 (1 cycle = 60 seconds), 1 μM Iso, 50 μM Fsk, 10 μM H89, 100 μM IBMX): 11.07% ± 2.19%
- Average percent FRET response ± standard deviation, cycle 11 (cAMP [1]; cycle 11 (1 cycle = 60 seconds), 1 μM Iso, 50 μM Fsk, 10 μM H89, 100 μM IBMX): 6.94% ± 1.93
- Average percent FRET response ± standard deviation, cycle 12 (cAMP [1]; cycle 12 (1 cycle = 60 seconds), 1 μM Iso, 50 μM Fsk, 10 μM H89, 100 μM IBMX): 2.26% ± 5.45%
- Average percent FRET response ± standard deviation, cycle 13 (cAMP [1]; cycle 13 (1 cycle = 60 seconds), 1 μM Iso, 50 μM Fsk, 10 μM H89, 100 μM IBMX): 2.47% ± 6.06%
- Average percent FRET response ± standard deviation, cycle 14 (cAMP [1]; cycle 14 (1 cycle = 60 seconds), 1 μM Iso, 50 μM Fsk, 10 μM H89, 100 μM IBMX): 2.27% ± 3.37%
- Average percent FRET response ± standard deviation, cycle 15 (cAMP [1]; cycle 15 (1 cycle = 60 seconds), 1 μM Iso, 50 μM Fsk, 10 μM H89, 100 μM IBMX): 1.80% ± 5.84%
- Average percent FRET response ± standard deviation, cycle 16 (cAMP [1]; cycle 16 (1 cycle = 60 seconds), 1 μM Iso, 50 μM Fsk, 10 μM H89, 100 μM IBMX): 1.05% ± 5.87%
- Average percent FRET response ± standard deviation, cycle 17 (cAMP [1]; cycle 17 (1 cycle = 60 seconds), 1 μM Iso, 50 μM Fsk, 10 μM H89, 100 μM IBMX): 1.29% ± 2.72%
- Average percent FRET response ± standard deviation, cycle 18 (cAMP [1]; cycle 18 (1 cycle = 60 seconds), 1 μM Iso, 50 μM Fsk, 10 μM H89, 100 μM IBMX): 1.68% ± 6.12%
- Average percent FRET response ± standard deviation, cycle 19 (cAMP [1]; cycle 19 (1 cycle = 60 seconds), 1 μM Iso, 50 μM Fsk, 10 μM H89, 100 μM IBMX): 2.52% ± 3.54%
- Average percent FRET response ± standard deviation, cycle 20 (cAMP [1]; cycle 20 (1 cycle = 60 seconds), 1 μM Iso, 50 μM Fsk, 10 μM H89, 100 μM IBMX): 0.93% ± 4.45%
- character of ICUE3 response (in words) (cAMP [2]): transient responses
- maximal response / emission ratio change (cAMP [2]; HEK293 cells expressing ICUE3, n=7): 8.10%±1.4%
- time to plateau / maximal change in emission ratio (cAMP [3]; 10 μM PGE1): 1.5 to 3 min
- increase in the ratio of cyan to yellow emissions (FRET response) (cAMP [3]; 10 μM PGE1, 300 μM 8-pCPT-2′-O-Me-cAMP, average ± S.E.M): 16.8%±1.0
